# Results taken from ChEMBL document CHEMBL1165854, “Computational screening for membrane-directed inhibitors of mast cell activation” (Eur J Med Chem, 2010).
# Tests used:
# [1] = Toxicity in rat RBL2H3 cells; format: cell-based, RBL-2H3; details: read-out: MTD
# RBL-2H3 [2] = test: Inhibition of rat RBL2H3 […] assessed as reduction of beta hexasaminidase release; format: functional, cell-based
# RBL-2H3 [3] = test: Inhibition of rat RBL2H3 […] assessed as reduction of beta hexasaminidase release at 25 uM; format: functional
# RBL-2H3 [4] = test: Inhibition of rat RBL2H3 […] assessed as reduction of beta hexasaminidase release at 10 uM; format: functional
Compound,MNTC [1],IC50 (RBL-2H3 [2]),inhibition at 25 µM (RBL-2H3 [3]),inhibition at 10 µM (RBL-2H3 [4])
CCCCCCCCCCCCCCCCOC(=O)C[n+]1csc(CCO)c1C,50 µM,5.5 µM,93%,–
CCCCCCCCCCCCCCCCNc1c2c(nc3c(C)cc(C)cc13)CC(C)(C)CC2=O,–,–,7%,–
CCCCCCCCCCCCCCCCCC(=O)Nc1c(C)c(CC)nc2ccccc12,–,–,10%,–
CCCCCCCCCCCCCCCCOP(=O)([O-])OC1CC2CCC(C1)[N+]2(C)C (stereo not drawn),25 µM,5.7 µM,–,82%
CCCCCCCCCCCCCCCCOP(=O)([O-])OCC[N+](C)(CC)CC,50 µM,4.4 µM,–,88%
CCCCCCCCCCCCCCCCCCOC[C@H](COP(=O)([O-])OCC[N+](C)(C)C)OC [(R)-EDELFOSINE],25 µM,7.1 µM,79%,–
CCCCCCCCCCCCCCCCSCC(COC)COP(=O)([O-])OCC[N+](C)(C)C (stereo not drawn) [ILMOFOSINE],50 µM,6.4 µM,–,84%
CCCCCCCCCCCCCCCCOP(=O)([O-])OCC[N+](C)(C)C [MILTEFOSINE],25 µM,4.6 µM,–,87%
CCCCCCCCCCCCCCCCCCOP(=O)([O-])OC1CC[N+](C)(C)CC1 [PERIFOSINE],25 µM,5 µM,–,88%
